Measured values published in patent publication US20250197447A1, “PEPTIDE HAVING ANTI-AGING ACTIVITY, AND USE THEREOF” (CAREGEN CO., LTD., priority 2021, published 2025).

What was measured:
fibronectin = assay: RT-PCR of fibronectin mRNA decreased by UV irradiation in fibroblasts; assay type: cell-based, mouse; conditions: NIH3T3 cells; peptide 10, 50, 100 μM before 6 J/cm^2 UVA; 6 hours culture; FIGS. 2A, 2C
Protocol: (§1) Expression of collagen, fibronectin, and elastin genes constituting the extracellular matrix (ECM) is inhibited when irradiated with UV. Therefore, it was confirmed whether the photoaging phenomenon of the cells was inhibited by confirming whether the expression levels of collagen, fibronectin, and elastin genes were restored and increased when treated with the peptide of the present invention.
(§2) First, NIH3T3 cells were seeded in a 6-well plate at a cell density of 5×10^5 cell/well, and then the cells were cultured in DMEM medium containing 10% fetal bovine serum (FBS) for 24 hours. The cultured cells were washed once with serum free DMEM medium, and the peptide of the present invention was mixed in 1 mL of the serum free DMEM medium at each of concentrations of 10, 50, and 100 μM, and dispensed into the cells. A positive control (PC) was treated with 50 μM of Quercetin instead of the above peptide.
(§3) The cells were cultured in a CO2 incubator at 37° C. for 1 hour. […] The amount of RNA isolated was quantified, 1,000 ng of RNA per tube was added, and reverse transcription into cDNA was performed using a kit (enzynomics, Cat. No.: RT200, Korea), and RT-PCR was performed using a PCR kit (enzynomics, Cat. No.: P581T, Korea). […]

[1] = tested on: apoptotic-inducing factors (Cleaved PARP-1, Bax, Cleaved Caspase-3); assay: Western blot of apoptotic-inducing factors increased by UV irradiation in NIH3T3 fibroblasts; assay type: cell-based, mouse; conditions: peptide 10, 50, 100 μM before 6 J/cm^2 UVA, 48 hours culture, FIGS. 3A to 3D
Protocol: Expression of the apoptotic-inducing factors increases when irradiated with UV. Therefore, it was confirmed whether the photoaging phenomenon of the cells was inhibited and the damaged cells were regenerated by confirming whether the increased expression levels of the apoptotic-inducing factors such as cleaved PARP-1, cleaved Caspase-3, and […] decreased again when treated with the peptide of the present invention.
(§4) First, NIH3T3 cells were seeded in a 6-well plate at a cell density of 5×10^5 cell/well, and then the cells were cultured in DMEM medium containing 10% fetal bovine serum (FBS) for 24 hours. The cultured cells were washed once with serum free DMEM medium, and the peptide of the present invention was mixed in 1 mL of the serum free DMEM medium at each of concentrations of 10, 50, and 100 μM, and dispensed into the cells. A positive control (PC) was treated with 2.5 mM of N-Acetylcysteine (NaC) instead of the above peptide.
The cells were cultured in a CO2 incubator at 37° C. for 1 hour, the medium of the cultured cells was transferred to a tube, 1 mL of PBS was added, and then irradiation was performed with 6 J/cm^2 of UVA using a UV irradiator (VILBER LOURMAT, Cat No.: 3102-BSU, France). After removing PBS, 900 μL of the medium transferred to the tube was added again, and culture was performed in a CO2 incubator at 37° C. for 48 hours. […]

collagen (Col1a1) = assay: RT-PCR of collagen (Col1a1) mRNA decreased by UV irradiation in fibroblasts; assay type: cell-based, mouse; conditions: NIH3T3 cells; peptide 10, 50, 100 μM before 6 J/cm^2 UVA; 6 hours culture; FIGS. 2A, 2B
Protocol: as §1, §2, §3

MMP-1 [2] = assay: Western blot of MMP-1 increased by UV irradiation in fibroblasts; assay type: cell-based, mouse; conditions: NIH3T3 cells; peptide 10, 50, 100 μM before 6 J/cm^2 UVA; 48 hours culture; FIGS. 4A, 4B
Protocol: (§5) The expression of MMP-1 and MMP-2 encoding proteins related to collagen degradation is increased by ultraviolet irradiation. Therefore, it was confirmed whether the synthesis of the MMP-1 and MMP-2 proteins was inhibited again and the cell aging phenomenon was inhibited when treated with the peptide of the present invention.
as §4
(§6) The cells were cultured in a CO2 incubator at 37° C. for 1 hour. The medium of the cultured cells was transferred to a tube, 1 ml of PBS was added, and irradiation was performed with 6 J/cm^2 of UVA using a UV irradiator (VILBER LOURMAT, Cat No.: 3102-BSU, France). After removing PBS, 900 μL of the medium transferred to the tube was added, and culture was performed in a CO2 incubator at 37° C. for 48 hours. […]

MMP-1 [3] = assay: Western blot of MMP-1 increased by heat treatment in fibroblasts; assay type: cell-based, mouse; conditions: NIH3T3 cells; peptide 10, 50, 100 μM for 24 hours before 44° C. for 40 minutes; 8 hours culture; FIGS. 5A, 5B
Protocol: The expression of MMP-1 encoding proteins related to collagen degradation increases by heat treatment. Therefore, it was confirmed whether the synthesis of the MMP-1 protein was inhibited again and the cell aging phenomenon was inhibited when treated with the peptide of the present invention.
First, NIH3T3 cells were seeded in a 6-well plate at a cell density of 5×10^5 cell/well, and then the cells were cultured in DMEM medium containing 10% fetal bovine serum (FBS) for 24 hours. The cultured cells were washed once with serum free DMEM medium, and the peptide of the present invention was mixed in 1 mL of the serum free DMEM medium at each of concentrations of 10, 50, and 100 μM, and dispensed into the cells. A positive control (PC) was treated with 2.5 mM of N-Acetylcysteine (NaC) or 2 mM of Glutathione (GSH) instead of the above peptide.
The cells were cultured in a CO2 incubator at 37° C. for 24 hours. A lid and a lower plate of the 6-well plate were sealed with a paraffin film for heat treatment, the lower plate was immersed in a water bath at 44° C., and culture was performed for 40 minutes. After removing the medium, 1 mL of the serum free DMEM medium was added, and culture was performed in a CO2 incubator at 37° C. for 8 hours. Thereafter, the cells were washed twice with PBS, and then a cell lysis buffer was added to obtain a lysate. […]

MMP-2 = assay: Gelatin zymography of MMP-2 in culture medium after UV irradiation of fibroblasts; assay type: cell-based, mouse; conditions: NIH3T3 cells, peptide 10, 50, 100 μM before 6 J/cm^2 UVA, 48 hours culture, FIGS. 4A, 4C
Protocol: as §5, §4, §6

elastin = assay: RT-PCR of elastin mRNA decreased by UV irradiation in fibroblasts; assay type: cell-based, mouse; conditions: NIH3T3 cells; peptide 10, 50, 100 μM before 6 J/cm^2 UVA; 6 hours culture; FIGS. 2A, 2D
Protocol: as §1, §2, §3

[4] = tested on: NIH3T3 cells (mouse fibroblast cell line); assay: Intracellular reactive oxygen species (ROS) level after UVA irradiation, DCFH-DA / FACS; assay type: cell-based; conditions: peptide 10, 50, 100 μM for 1 hour before 8 J/cm^2 UVA, 24 hours culture, FIG. 1
Protocol: The reactive oxygen species level increases when UV is irradiated. Therefore, it was confirmed whether the reactive oxygen species level decreased again and the aging phenomenon caused by oxidative stress in cells was inhibited when treated with the peptide of the present invention.
First, NIH3T3 cells (mouse fibroblast cell line) were seeded in a 6-well plate at a cell density of 5×10^5 cell/well, and then the cells were cultured in DMEM medium containing 10% fetal bovine serum (FBS) for 24 hours. The cultured cells were washed once with serum free DMEM medium, and the peptide of the present invention was mixed in 1 mL of the serum free DMEM medium at each of concentrations of 10, 50, and 100 μM, and then dispensed into the cells. A positive control (PC) was treated with 7.5 mM of N-Acetylcysteine (NaC) instead of the above peptide.
The cells were cultured in a CO2 incubator at 37° C. for 1 hour. The medium of the cultured cells was transferred to a tube, 1 ml of PBS was added, and irradiation was performed with 8 J/cm^2 of UVA using a UV irradiator (VILBER LOURMAT, Cat No.: 3102-BSU, France). After removing PBS, 900 μL of the medium transferred to the tube was treated again, and culture was performed in a CO2 incubator at 37° C. for 24 hours. […] After centrifugation, the cells were washed with PBS, and a fluorescence value was measured through FACS.

LKKNGSCKRGPRTHYGQK [peptide of the present invention]
mRNA expression of fibronectin decreased by UV irradiation (fibronectin): increased
expression of the apoptotic-inducing factors increased in the cells damaged by UV irradiation [1]: decreased
mRNA expression of collagen decreased by UV irradiation (collagen (Col1a1)): increased
expression and activity of MMP-1 increased by UV irradiation (MMP-1 [2]): inhibited
amount of MMP-1 protein whose expression was increased by heat treatment (MMP-1 [3]): decreased
expression and activity of MMP-2 increased by UV irradiation (MMP-2): inhibited
mRNA expression of elastin decreased by UV irradiation (elastin): increased
intracellular reactive oxygen species level increased by ultraviolet irradiation [4]: decreased
